{"source": "patent US6403607B1", "about": "“Sulfonamide derivatives and drugs containing the same as the active ingredient” (priority 1998, dated 2002)", "key": {"[1]": {"system": "ethanol ulcer in the gland gastric region", "assay": "Ethanol ulcer", "type": "in vivo", "settings": "rats fasted 24 hours, drug oral, 99.5% ethanol 1 ml/rat after one hour, size of ulcer one hour later; for Suppression: dose not given", "procedure": "Ethanol Ulcer Rats were fasted for 24 hours and orally administered with a drug. After one hour, 99.5% ethanol (1 ml/rat) was fed through oral administration. After one hour of ethanol administration, the abdomens of the rats were dissected and the size of ulcer in the gland gastric region was measured for each rat."}, "[2]": {"system": "HCl-ethanol ulcer in the gland gastric region", "assay": "HCl-ethanol ulcer", "type": "in vivo, Rats", "settings": "rats fasted 24 hours, drug oral, 60% ethanol containing 0.15 N hydrochloric acid 1 ml/rat after one hour, size of ulcer one hour later; dose not given", "procedure": "HCl-ethanol Ulcer Rats were fasted for 24 hours and orally administered with a drug. After one hour, 60% ethanol containing 0.15 N hydrochloric acid (1 ml/rat) was perorally administered to each rat. One hour after ethanol administration, the size of ulcer in the gland gastric region was measured for evaluation of anti-ulcer effects of the drug."}, "Helicobacter pylori": {"system": "Helicobacter pylori", "assay": "Anti-Helicobacter-pylori action (agar plate dilution MIC)", "type": "cell-based", "settings": "clinically isolated 10 bacterial strains, agar plate dilution method", "procedure": "Anti-Helicobacter-pylori Action\nUsing clinically isolated 10 bacterial strains, the minimum inhibitory concentration (MIC) was measured according to the agar plate dilution method."}, "rat red blood cell": {"system": "rat red blood cell", "assay": "Hemolytic action", "type": "cell-based", "settings": "10% rat red blood cell stock, 1% DMSO containing saline, 30 minutes at 37° C., absorbance 540 nm", "procedure": "Hemolytic Action […] After incubation for 30 minutes at, 37° C., the mixture was centrifugally separated and the supernatant was obtained. The absorbance (540 nm) of the supernatant was measured. The hemolysis ratio was calculated."}, "H/K-ATPase": {"biological_target": "H/K-ATPase (Oryctolagus cuniculus, UniProt P27112)", "sequence (P27112 whole entry)": "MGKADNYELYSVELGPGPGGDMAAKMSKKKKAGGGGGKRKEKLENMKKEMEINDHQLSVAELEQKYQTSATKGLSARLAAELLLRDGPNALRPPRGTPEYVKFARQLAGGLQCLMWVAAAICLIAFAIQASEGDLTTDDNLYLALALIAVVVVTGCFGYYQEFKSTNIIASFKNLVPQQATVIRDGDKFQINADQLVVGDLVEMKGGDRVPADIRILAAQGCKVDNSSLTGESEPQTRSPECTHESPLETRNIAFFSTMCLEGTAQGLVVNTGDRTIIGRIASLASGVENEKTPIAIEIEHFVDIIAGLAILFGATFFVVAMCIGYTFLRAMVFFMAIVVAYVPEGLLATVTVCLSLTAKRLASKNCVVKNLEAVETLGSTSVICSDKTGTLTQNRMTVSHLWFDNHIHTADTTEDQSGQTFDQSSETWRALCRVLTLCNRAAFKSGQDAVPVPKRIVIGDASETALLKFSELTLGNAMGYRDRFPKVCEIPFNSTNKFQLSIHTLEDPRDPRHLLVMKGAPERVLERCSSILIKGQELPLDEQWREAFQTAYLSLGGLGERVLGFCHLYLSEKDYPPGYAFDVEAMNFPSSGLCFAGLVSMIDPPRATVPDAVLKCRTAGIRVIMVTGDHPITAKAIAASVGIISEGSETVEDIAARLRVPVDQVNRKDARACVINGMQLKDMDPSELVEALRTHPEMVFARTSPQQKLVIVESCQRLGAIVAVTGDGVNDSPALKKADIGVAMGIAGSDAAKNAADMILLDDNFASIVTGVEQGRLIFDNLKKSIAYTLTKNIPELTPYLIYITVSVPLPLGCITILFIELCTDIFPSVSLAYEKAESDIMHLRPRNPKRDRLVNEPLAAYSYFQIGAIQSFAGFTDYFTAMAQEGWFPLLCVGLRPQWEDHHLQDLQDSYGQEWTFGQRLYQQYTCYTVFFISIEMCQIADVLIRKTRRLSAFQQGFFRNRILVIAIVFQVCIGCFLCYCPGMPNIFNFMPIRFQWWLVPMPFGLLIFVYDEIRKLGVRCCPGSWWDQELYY", "sequence (P18597 whole entry partner)": "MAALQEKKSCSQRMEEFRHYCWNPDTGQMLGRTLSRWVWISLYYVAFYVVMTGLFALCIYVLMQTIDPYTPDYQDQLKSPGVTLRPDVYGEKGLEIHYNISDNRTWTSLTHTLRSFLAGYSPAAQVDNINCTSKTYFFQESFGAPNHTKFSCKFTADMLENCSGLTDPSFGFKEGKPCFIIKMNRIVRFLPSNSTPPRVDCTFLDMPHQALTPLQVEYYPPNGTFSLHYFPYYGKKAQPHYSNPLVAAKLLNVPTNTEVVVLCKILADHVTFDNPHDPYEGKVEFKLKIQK", "assay": "H/K-ATPase inhibition", "type": "biochemical", "settings": "pH 7.4, H/K-ATPase from rabbit gastric mucous membrane", "procedure": "H/K-ATPase Inhibition The inhibitory effect was measured under pH 7.4, by using H/K-ATPase isolated and purified from the rabbit gastric mucous membrane."}}, "data": [{"smiles": "CN(C)CCN(c1ccccc1NCCOc1ccc(Cl)cc1)S(=O)(=O)c1ccc(Cl)cc1.CN(C)CCN(c1ccccc1NCCOc1ccc(Cl)cc1)S(=O)(=O)c1ccc(Cl)cc1.O=C(O)C(O)C(O)C(=O)O", "note": "[Example 3, N-(4-Chlorobenzenesulfonyl)-N-(2-dimethylaminoethyl)-N′-[2-(4-chlorophenoxy)ethyl]-o-phenylenediamine ½ Tartaric Acid Salt]", "values": [{"measurement": "ED50", "setting": "[1]", "result": 14, "unit": "mg/kg"}, {"measurement": "Suppression", "setting": "[1]", "result": 88, "unit": "%"}, {"measurement": "Suppression", "setting": "[2]", "result": 91, "unit": "%"}, {"measurement": "MIC", "setting": "Helicobacter pylori", "result": "0.78 to 3.13", "unit": "µg/mL"}, {"measurement": "HC50", "setting": "rat red blood cell", "result": 72.3, "unit": "µg/mL"}]}, {"smiles": "CCS(=O)(=O)N(CCOCCN)c1ccccc1NCCOc1ccc(Cl)cc1", "note": "[Example 23, N-[2-(2-Amino)ethoxyethyl]-N-(1-ethanesulfonyl)-N′-[2-(4-chlorophenoxy)ethyl]-o-phenylenediamine]", "values": [{"measurement": "Suppression", "setting": "[1]", "result": 98, "unit": "%"}, {"measurement": "IC50", "setting": "H/K-ATPase", "result": 230, "unit": "µM"}]}, {"smiles": "CCCCCS(=O)(=O)N(CCOCCN)c1ccccc1NCCOc1ccc(Cl)cc1", "note": "[Example 27, N-[2-(2-Amino)ethoxyethyl]-N-(1-pentanesulfonyl)-N′-[2-(4-chlorophenoxy)ethyl]-o-phenylenediamine]", "values": [{"measurement": "IC50", "setting": "H/K-ATPase", "result": 38, "unit": "µM"}]}, {"smiles": "CCCCCCS(=O)(=O)N(CCOCCN)c1ccccc1NCCOc1ccc(Cl)cc1", "note": "[Example 28, N-[2-(2-Amino)ethoxyethyl]-N-(1-hexanesulfonyl)-N′-[2-(4-chlorophenoxy)ethyl]-o-phenylenediamine]", "values": [{"measurement": "Suppression", "setting": "[1]", "result": 100, "unit": "%"}, {"measurement": "IC50", "setting": "H/K-ATPase", "result": 79, "unit": "µM"}]}, {"smiles": "CCCCCCCS(=O)(=O)N(CCOCCN)c1ccccc1NCCOc1ccc(Cl)cc1", "note": "[Example 29, N-[2-(2-Amino)ethoxyethyl]-N-(1-heptanesulfonyl)-N′-[2-(4-chlorophenoxy)ethyl]-o-phenylenediamine]", "values": [{"measurement": "IC50", "setting": "H/K-ATPase", "result": 5, "unit": "µM"}]}, {"smiles": "CCS(=O)(=O)N(CCN(C)C)c1ccccc1NCCOc1ccc(Cl)cc1.Cl", "note": "[Example 30, N-[2-(Dimethylamino)ethyl]-N-ethanesulfonyl-N′-[2-(4-chlorophenoxy)ethyl]-o-phenylenediamine Hydrochloride]", "values": [{"measurement": "HC50", "setting": "rat red blood cell", "result": ">100", "unit": "µg/mL"}]}, {"smiles": "CCCCCCS(=O)(=O)N(CCN(C)C)c1ccccc1NCCOc1ccc(Cl)cc1.Cl", "note": "[Example 32, N-[2-(Dimethylamino)ethyl]-N-(1-hexanesulfonyl)-N′-[2-(4-chlorophenoxy)ethyl]-o-phenylenediamine Hydrochloride]", "values": [{"measurement": "Suppression", "setting": "[2]", "result": 88, "unit": "%"}, {"measurement": "HC50", "setting": "rat red blood cell", "result": ">100", "unit": "µg/mL"}]}, {"smiles": "COc1ccc(S(=O)(=O)N(CCN(C)C)c2ccccc2NCCOc2ccc(Cl)cc2)cc1.Cl", "note": "[Example 40, N-[2-(Dimethylamino)ethyl]-N-(4-methoxybenzenesulfonyl)-N′-[2-(4-chlorophenoxy)ethyl]-o-phenylenediamine Hydrochloride]", "values": [{"measurement": "Suppression", "setting": "[2]", "result": 88, "unit": "%"}, {"measurement": "HC50", "setting": "rat red blood cell", "result": ">100", "unit": "µg/mL"}]}, {"smiles": "CN(C)CCN(c1ccccc1NCCOc1ccc(Cl)cc1)S(=O)(=O)c1ccc(F)cc1.Cl", "note": "[Example 42, N-[2-(Dimethylamino)ethyl]-N-(4-fluorobenzenesulfonyl)-N′-[2-(4-chlorophenoxy)ethyl]-o-phenylenediamine Hydrochloride]", "values": [{"measurement": "Suppression", "setting": "[2]", "result": 91, "unit": "%"}, {"measurement": "HC50", "setting": "rat red blood cell", "result": ">100", "unit": "µg/mL"}]}, {"smiles": "CN(C)CCN(c1ccccc1NCCOc1ccccc1)S(=O)(=O)c1ccc(Cl)cc1.Cl", "note": "[Example 50, N-[2-(Dimethylamino)ethyl]-N-(4-chlorobenzenesulfonyl)-N′-(2-phenoxyethyl)-o-phenylenediamine Hydrochloride]", "values": [{"measurement": "Suppression", "setting": "[2]", "result": 81, "unit": "%"}, {"measurement": "HC50", "setting": "rat red blood cell", "result": ">100", "unit": "µg/mL"}]}, {"smiles": "CN(C)CCN(c1ccccc1NCCOc1ccc(Cl)cc1)S(=O)(=O)c1ccccc1Cl.Cl", "note": "[Example 51, N-[2-(Dimethylamino)ethyl]-N-(2-chlorobenzenesulfonyl)-N′-[2-(4-chlorophenoxy)ethyl]-o-phenylenediamine Hydrochloride]", "values": [{"measurement": "Suppression", "setting": "[2]", "result": 83, "unit": "%"}, {"measurement": "HC50", "setting": "rat red blood cell", "result": 84.6, "unit": "µg/mL"}]}, {"smiles": "CN(C)CCN(c1cccc(NCCOc2ccc(Cl)cc2)c1)S(=O)(=O)c1ccc(Cl)cc1.Cl", "note": "[Example 55, N-[2-(Dimethylamino)ethyl]-N-(4-chlorobenzenesulfonyl)-N′-[2-(4-chlorophenoxy)ethyl]-m-phenylenediamine Hydrochloride]", "values": [{"measurement": "Suppression", "setting": "[2]", "result": 88, "unit": "%"}]}, {"smiles": "CN(C)CCN(c1ccc(NCCOc2ccc(Cl)cc2)cc1)S(=O)(=O)c1ccccc1Cl.Cl", "note": "[Example 56, N-[2-(Dimethylamino)ethyl]-N-(2-chlorobenzenesulfonyl)-N′-[2-(4-chlorophenoxy)ethyl]-p-phenylenediamine Hydrochloride]", "values": [{"measurement": "Suppression", "setting": "[2]", "result": 88, "unit": "%"}]}, {"smiles": "CN(C)CCN(c1ccccc1NCCOc1ccc(Cl)cc1)S(=O)(=O)c1cccc2cnccc12.Cl", "note": "[Example 57, N-[2-(Dimethylamino)ethyl]-N-(5-isoquinolinesulfonyl)-N′-[2-(4-chlorophenoxy)ethyl]-o-phenylenediamine Hydrochloride]", "values": [{"measurement": "HC50", "setting": "rat red blood cell", "result": ">100", "unit": "µg/mL"}]}, {"smiles": "CN(C)CCN(c1ccccc1NCCOc1cccc(Cl)c1)S(=O)(=O)c1ccc(Cl)cc1.Cl", "note": "[Example 58, N-[2-(Dimethylamino)ethyl]-N-(4-chlorobenzenesulfonyl)-N′-[2-(3-chlorophenoxy)ethyl]-o-phenylenediamine Hydrochloride]", "values": [{"measurement": "Suppression", "setting": "[2]", "result": 88, "unit": "%"}, {"measurement": "HC50", "setting": "rat red blood cell", "result": 71.2, "unit": "µg/mL"}]}, {"smiles": "CN(C)CCN(c1ccccc1N(C)CCOc1ccc(Cl)cc1)S(=O)(=O)c1ccc(Cl)cc1.Cl", "note": "[Example 69]", "values": [{"measurement": "Suppression", "setting": "[2]", "result": 99, "unit": "%"}]}, {"smiles": "CN(C)CCN(c1ccccc1N(CCOc1ccc(Cl)cc1)Cc1ccccc1)S(=O)(=O)c1ccc(Cl)cc1.Cl", "note": "[Example 71, N-[2-(Dimethylamino)ethyl]-N-(4-chlorobenzenesulfonyl)-N′-benzyl-N′-[2-(4-chlorophenoxy)ethyl]-o-phenylenediamine Hydrochloride]", "values": [{"measurement": "Suppression", "setting": "[2]", "result": 99, "unit": "%"}]}, {"smiles": "CN(C)CCN(c1ccccc1N1CCOCC1)S(=O)(=O)c1ccc(Cl)cc1.Cl", "note": "[Example 128, 2-(4-Morpholino)-1-[N-[2-(dimethylamino)ethyl]-N-(4-chlorobenzenesulfonyl)]aminobenzene Hydrochloride Salt]", "values": [{"measurement": "HC50", "setting": "rat red blood cell", "result": ">100", "unit": "µg/mL"}]}, {"smiles": "CN(C)CCN(c1ccccc1N1CCNCC1)S(=O)(=O)c1ccc(Cl)cc1.Cl", "note": "[Example 129, 2-(1-Piperazino)-1-[N-[2-(dimethylamino)ethyl]-N-(4-chlorobenzenesulfonyl)]aminobenzene Hydrochloride Salt]", "values": [{"measurement": "HC50", "setting": "rat red blood cell", "result": ">100", "unit": "µg/mL"}]}, {"smiles": "CN(C)CCN(c1ccccc1N1CCN(c2ccc(Cl)cc2)CC1)S(=O)(=O)c1ccc(Cl)cc1", "note": "[Example 132, 2-[4-(4-Chlorophenyl)-1-piperazino]-1-[N-[2-(dimethylamino)ethyl]-N-(4-chlorobenzenesulfonyl)]aminobenzene]", "values": [{"measurement": "Suppression", "setting": "[2]", "result": 88, "unit": "%"}, {"measurement": "MIC", "setting": "Helicobacter pylori", "result": "3.13 to 12.5", "unit": "µg/mL"}]}, {"smiles": "CN(C)CCN(c1ccccc1N1CCCN(c2ccc(Cl)cc2)CC1)S(=O)(=O)c1ccc(Cl)cc1.Cl", "note": "[Example 135, 2-[4-(4-Chlorophenyl)-1-homopiperazino]-1-[N-[2-(dimethylamino)ethyl]-N-(4-chlorobenzenesulfonyl)]aminobenzene.HCl]", "values": [{"measurement": "Suppression", "setting": "[2]", "result": 89, "unit": "%"}]}, {"smiles": "CN(C)CCN(c1ccccc1Sc1ccc(Cl)cc1)S(=O)(=O)c1ccc(Cl)cc1.Cl", "note": "[Example 142, 2-(4-Chlorophenylthio)-N-(4-chlorobenzenesulfonyl)-N-(2-dimethylaminoethyl)aniline.HCl]", "values": [{"measurement": "Suppression", "setting": "[2]", "result": 98, "unit": "%"}]}, {"smiles": "CN(C)CCN(c1ccccc1Oc1ccc(Cl)cc1)S(=O)(=O)c1ccc(Cl)cc1.Cl", "note": "[Example 145, 1-[N-[2-(Dimethylamino)ethyl]-N-(4-chlorobenzenesulfonyl)]-2-(4-chlorophenoxy)aniline.HCl]", "values": [{"measurement": "HC50", "setting": "rat red blood cell", "result": ">100", "unit": "µg/mL"}]}]}
